The record followed here is paper PMC8769378, “Underlining the Importance of Peripheral Protic Functional Groups to Enhance the Proton Exchange of Gd-Based MRI Contrast Agents” (Inorganic Chemistry, 2021).

The structures appear in SMILES notation. “And” between values parts separate entries of the source, which are not always exact repeats. Identical values can stand only once.

The series can be described thus: Analysis of 1/T1 ^1H NMRD profiles. The class given is physicochemical. How it is done: The relaxometric characterization of the Gd complexes was carried out by recording their ^1H nuclear magnetic relaxation dispersion (NMRD) profiles at 283, 298, and 310 K in the proton Larmor frequency range 0.01–120 MHz, corresponding to magnetic field strengths varying between 2.34 × 10^–4 and 3 T (Figure 2). The shape of the NMRD profiles and their temperature dependence (r1 decreases with increasing temperature) reflect the general behavior of small Gd^III complexes, characterized by a constant r1 value at low fields, a dispersion around 4–6 MHz, and another region at high fields (>20 MHz) where r1 slightly decreases. […] A least-squares fit of the profiles was carried out in terms of the established theory of paramagnetic relaxation expressed by the Solomon–Bloembergen–Morgan[30],[31] and Freed’s[32] equations for the innersphere (IS) and outersphere (OS) proton relaxation mechanisms, respectively (Table 3). Because of the large number of parameters involved in the fitting procedure, some of them were fixed to known or reasonable values: The hydration number q was fixed to 1, and the distance between Gd^III and the protons of the bound water molecule, r, was fixed to 3.0 Å; the distance of closest approach, a, of the outersphere water molecules to Gd^III was set to 4.0 Å, and for the relative diffusion coefficient D, standard values of 1.7, 2.24, and 3.1 × 10^–5 cm^2 s^–1 (283, 298, and 310 K) were used. […] The difference in relaxivity between GdL1 and GdL2 cannot account for the difference in τR since their molecular weight is very similar; therefore, we considered that the pendant propionate moiety of GdL2 allows for the presence of second sphere (SS) water molecules in H-bonding interaction with the carboxylate group at a distance from Gd^III sufficiently short (<4 Å) and with a residence time sufficiently long to be affected by the rotation. […] Therefore, we analyzed the NMRD profiles for GdL2 also considering the SS contribution, expressed in terms of two additional parameters: the number qSS of second sphere water molecules and their rotational correlation time, τR(SS). The average distance from the paramagnetic center was arbitrarily fixed at 3.5 Å, an intermediate value between those of water molecules in the inner (3.0 Å) and outer (4.0 Å) solvation shell.[33] In addition, since GdL1 and GdL2 are structurally related to the recently reported GdHPADO3A-like complexes having a carbonyl group in place of the methyl group present in GdHPDO3A, τM was fixed to that reported for GdHPADO3A at pH 7 (20 ns).[7] The electronic and reorientation parameters reported in Table 3 for GdL1 and GdL2 are in good agreement with those of other GdHPDO3A-like complexes. Finally, considering the contribution of two second sphere water molecules characterized by a rotational correlation time τR(SS) of 30 ps, the contribution of the SS molecules to the relaxivity of GdL2 is about 0.3 mM^–1 s^–1 at 20 MHz and 298 K almost equal to the Δr1 between GdL1 and GdL2.
Proton relaxation measurements (1/T1) and the resulting 1/T1 NMRD profiles were measured on a fast-field cycling (FFC) Stelar SmarTracer relaxometer over a continuum of magnetic field strengths from 0.000 24 to 0.25 T (corresponding to 0.01–10 MHz proton Larmor frequencies). The relaxometer operates under computer control with an absolute uncertainty in 1/T1 of ±1%. […] Furthermore, the real temperature inside the probe head was additionally monitored by a Fluke 52 k/j digital thermometer (Fluke, Zürich, Switzerland). The gadolinium concentration was determined by measuring the bulk magnetic susceptibility shifts of the t-BuOH ^1H NMR signal. Additional data in the 20–120 MHz frequency range were obtained with a high field relaxometer (Stelar) equipped with the HTS-110 3T metrology cryogen-free superconducting magnet. […] The pH-dependent relaxivity measurements of GdL1 and GdL2 complexes were carried out by direct titration of the samples (GdL2, 3.0 < pH < 12.5; GdL1, 4 < pH < 10). […]

Turning to `O=C([O-])CN1CCN(CC(=O)[O-])CCN(CC(O)C(=O)O)CCN(CC(=O)[O-])CC1.[Gd+3]` (stereo not shown) [GdL2], the “contribution of the second sphere (SS) water molecules to the relaxivity” value (20 MHz, 298 K, qSS = 2, τR(SS) 30 ps) is recorded as “about 0.3 mM^–1 s^–1”. Where the note is “298 K, 60 MHz, pH 7.4”, the “^298r1-60-MHz” value worked out at 4.6 ± 0.1 mM^–1 s^–1. The “^310r1-60-MHz” value (310 K, 60 MHz, pH 7.4) came to 3.6 ± 0.1 mM^–1 s^–1. Further, for the setting “NMRD fit”, the “Δ^2” value is given as 8.5 ± 0.2 10^19 s^–2 and the τv was 13.7 ± 0.5 ps. The molecule also displayed a τR (NMRD fit, q = 1) of 68 ± 2 ps. Moreover, the “τR(SS)” value (determined for qSS = 2 and rSF = 3.5 Å) was 30 ps and 30 ± 2 ps.
